Results taken from patent publication US20180193294A1, “Dehydroabietic acid (DHAA) derivatives for use as ion channel openers” (priority 2015, published 2018).

These compounds were tested against 3R Shaker K channel (Drosophila melanogaster, UniProt P08510, A359R/M356R) (assay: physchem). Conditions: Table 1; 100 μM, pH 7.4, Xenopus oocytes.
Format: cell-based
Description: A 3R Shaker K channel is a modified Shaker K channel where residues 356 and 359 are mutated to arginines.
All animal experiments were approved by the local Animal Care and Use Committee and followed international guidelines. A modified Shaker H4 channel^30, with removed N-type inactivation (ShH4IR)^31, here called the wild type (WT) channel, was expressed in oocytes. In addition, a modified 3R Shaker K channel where two introduced positive charged arginines (M356R and A359R) in addition to one native arginine (R362) makes the channel more sensitive to DHA^16, was expressed in oocytes and in a CHO—K1 stable cell line.
African clawed frogs (Xenopus laevis) were anesthetized with 1.4 g/L ethyl 3-aminobenzoate methanesulfonate salt (tricaine). After an incision through the abdomen a batch of oocytes were removed. Clusters of oocytes were separated by incubation for ˜1 h in a Ca-free O—R2 solution (in mM: 82.5 NaCl, 2 KCl, 5 HEPES, and 1 MgCl2; pH adjusted to 7.4 by NaOH) containing Liberase Blendzyme. The oocytes were then incubated at 8° C. in a modified Barth's solution (MBS; in mM: 88 NaCl, 1 KCl, 2.4 NaHCO3, 15 HEPES, 0.33 Ca(NO3)2, 0.41 CaCl2, and 0.82 MgSO4; pH adjusted to 7.6 by NaOH) supplemented with penicillin (25 U/ml), streptomycin (25 μg/ml), and sodium pyruvate (2.5 mM) 2-24 hours before injection. Fifty nl of cRNA (50 pg) were injected into each oocyte using a Nanoject injector (Drummond Scientific, Broomall, Pa.). Injected oocytes were kept at 8° C. in MBS until one day before electrophysiological recordings, when they were incubated at 16° C. All chemicals were supplied from Sigma-Aldrich (Stockholm, Sweden) if not stated otherwise.
All manual electrophysiological recordings were performed at room temperature (20-23° C.), using a GeneClamp 500B amplifier (for oocytes) or a Axopatch 200B amplifier (for manual patch clamp of CHO—K1 cells and DRG neurons) and a Digidata 1440A digitizer and pClamp 10 software (all from Molecular Devices, Inc., Sunnyvale, Calif., USA). Compounds were dissolved to 100 mM in 99.5% EtOH and stored at −20° C. Compounds were diluted in extracellular solution to the desired test concentration.
The oocyte was placed in a bath surrounded by 1K extracellular solution that contained (in mM): 88 NaCl, 1 KCl, 15 HEPES, 0.4 CaCl2, and 0.8 MgCl2, pH adjusted to 7.4 by NaOH (reaching a sodium concentration of ˜100 mM). Control solution was added to the bath with a gravity driven perfusion system. Compound solution was added to the bath manually with a syringe. Two glass microelectrodes were inserted into the oocyte using micromanipulators. […] All channels were closed when the potential was clamped to −80 mV and this voltage was set as the holding potential. Currents were evoked from the holding potential of −80 mV by 100-ms long, 5-mV steps ranging from −80 up to +50 mV (WT) and +70 mV (3R).
Conductance GK(V) was calculated as GK(V)=[…], (Eq. 1) where IK is the average current from the steady-state phase at the end of each 100-ms pulse, V is the membrane voltage, and Vrev is the reversal potential for K^+, (set to −80 mV for the oocytes, and calculated to be −89 mV for the CHO—K1 cells).
G(V)=A/(1+exp((V1/2−V)/s))^n (Eq. 2) where A is amplitude of the curve, V is the absolute membrane voltage, V1/2 is the midpoint, s is the slope and n is an exponent set to 4^17. The compound-induced G(V) shift was determined at the 10% level of the maximum conductance in control solution^17. The compound-induced G(V) shift in CHO—K1 was quantified by subtracting the control V1/2 from the compound V1/2 when n was set to 1.
Data for concentration and pH dependent G(V) shifts (ΔV) in oocytes were fit with a dose-response equation ΔV=ΔVmax/(1+c1/2/c), (Eq. 3) where Δvmax is the maximal shift, c1/2 is half maximal effective concentration/pKa value and c is the concentration.

Sequence of 3R Shaker K channel (P08510 whole entry M356R/A359R): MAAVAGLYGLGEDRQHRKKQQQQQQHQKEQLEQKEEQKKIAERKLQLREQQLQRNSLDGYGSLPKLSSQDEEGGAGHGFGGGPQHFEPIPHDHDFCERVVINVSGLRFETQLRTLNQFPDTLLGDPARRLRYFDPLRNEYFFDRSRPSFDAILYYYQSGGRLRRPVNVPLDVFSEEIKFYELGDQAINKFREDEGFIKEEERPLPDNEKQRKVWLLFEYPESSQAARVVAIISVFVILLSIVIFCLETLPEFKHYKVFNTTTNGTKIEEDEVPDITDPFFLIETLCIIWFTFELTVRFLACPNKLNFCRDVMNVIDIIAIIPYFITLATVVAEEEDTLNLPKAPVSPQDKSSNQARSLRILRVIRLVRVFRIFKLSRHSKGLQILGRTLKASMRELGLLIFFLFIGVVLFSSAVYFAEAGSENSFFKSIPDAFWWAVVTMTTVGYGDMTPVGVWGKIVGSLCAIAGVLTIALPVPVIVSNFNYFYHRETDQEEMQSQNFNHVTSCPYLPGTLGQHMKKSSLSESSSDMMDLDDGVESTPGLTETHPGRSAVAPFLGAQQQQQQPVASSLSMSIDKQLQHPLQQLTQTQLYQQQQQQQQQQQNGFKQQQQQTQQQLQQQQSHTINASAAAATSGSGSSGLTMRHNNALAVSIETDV

SMILES	G(V) shift
CC(C)c1ccc2c(c1F)CC[C@H]1[C@](C)(C(=O)O)CCC[C@]21C [Wu56, (1R,4aS,10aR)-8-fluoro-7-isopropyl-1,4a-dimethyl-1,2,3,4,4a,9,10,10a-octahydrophenanthrene-1-carboxylic acid]	−6.6 mV
CC(C)c1cc2c(cc1I)[C@@]1(C)CCC[C@@](C)(C(=O)O)C1CC2 (stereo partly drawn) [Wu60, (1R,4aS,E)-6-iodo-7-isopropyl-1,4a-dimethyl-1,2,3,4,4a,9,10,10a-octahydrophenanthrene-1-carboxylic acid]	−9.0 mV
CC(C)c1ccc2c(c1I)CCC1[C@](C)(C(=O)O)CCC[C@]21C (stereo partly drawn) [Wu61, (1R,4aS,E)-8-iodo-7-isopropyl-1,4a-dimethyl-1,2,3,4,4a,9,10,10a-octahydrophenanthrene-1-carboxylic acid]	−18.3 mV
CC(C)c1cc2c(cc1I)[C@@]1(C)CCC[C@@](C)(C(=O)O)[C@@H]1CC2=O [Wu62, (1R,4aS,10aR)-6-iodo-7-isopropyl-9-oxo-1,4a-dimethyl-1,2,3,4,4a,9,10,10a-octahydrophenanthrene-1-carboxylic acid]	−13.7 mV
C=CCO/N=C1\CC2[C@](C)(C(=O)O)CCC[C@]2(C)c2cc(I)c(C(C)C)cc21 (stereo partly drawn) [Wu63, (1R,4aS,E)-9-((allyloxy)imino)-6-iodo-7-isopropyl-1,4a-dimethyl-1,2,3,4,4a,9,10,10a-octahydrophenanthrene-1-carboxylic acid]	−19.3 mV
CO/N=C1\CC2[C@](C)(C(=O)O)CCC[C@]2(C)c2cc(I)c(C(C)C)cc21 (stereo partly drawn) [Wu64, (1R,4aS,E)-6-iodo-7-isopropyl-9-(methoxyimino)-1,4a-dimethyl-1,2,3,4,4a,9,10,10a-octahydrophenanthrene-1-carboxylic acid]	−22.2 mV
CC(C)c1ccc2c(c1I)C(=O)C[C@H]1[C@](C)(C(=O)O)CCC[C@]21C [Wu68, (1R,4aS,10aR)-8-iodo-7-isopropyl-1,4a-dimethyl-9-oxo-1,2,3,4,4a,9,10,10a-octahydrophenanthrene-1-carboxylic acid]	−26.0 mV
CC(C)c1ccc2c(c1Br)C(=O)CC1[C@](C)(C(=O)O)CCC[C@]21C (stereo partly drawn) [Wu73]	−5.8 mV
C=CCON=C1CC2C(C)(C(=O)O)CCCC2(C)c2ccc(C(C)C)c(Br)c21 (stereo not drawn) [Wu75]	−8.6 mV
C=Cc1c(C(C)C)ccc2c1CCC1[C@](C)(C(=O)O)CCC[C@]21C (stereo partly drawn) [Wu76]	−7.7 mV
C=Cc1cc2c(cc1C(C)C)CCC1[C@](C)(C(=O)O)CCC[C@]21C (stereo partly drawn) [Wu78, (1R,4aS)-7-isopropyl-1,4a-dimethyl-6-vinyl-1,2,3,4,4a,9,10,10a-octahydrophenanthrene-1-carboxylic acid]	−13.2 mV
CC(C)c1cc2c(cc1C1CC1)[C@@]1(C)CCC[C@@](C)(C(=O)O)C1CC2 (stereo partly drawn) [Wu81]	−8.2 mV
CC=Cc1cc2c(cc1C(C)C)CCC1[C@](C)(C(=O)O)CCC[C@]21C (stereo partly drawn) [Wu84]	−0.2 mV
CC=Cc1c(C(C)C)ccc2c1CCC1[C@](C)(C(=O)O)CCC[C@]21C (stereo partly drawn) [Wu85]	−1.9 mV
CC(C)c1cc2c(cc1I)[C@@]1(C)CCC[C@@](C)(C(=O)O)C1C/C2=N\O (stereo partly drawn) [Wu86, (1R,4aS,E)-9-(hydroxyimino)-6-iodo-7-isopropyl-1,4a-dimethyl-1,2,3,4,4a,9,10,10a-octahydrophenanthrene-1-carboxylic acid]	−21.0 mV
CC(C)c1cc2c(cc1I)C1(C)CCCC(C)(C(=O)O)C1CC2=NOCc1ccccc1 (stereo not drawn) [Wu87]	−6.0 mV
CC(C)c1ccc2c(c1Br)C(=NO)CC1C(C)(C(=O)O)CCCC21C (stereo not drawn) [Wu88]	−5.6 mV
CC(C)c1ccc2c(c1Br)C(=NOCc1ccccc1)CC1C(C)(C(=O)O)CCCC21C (stereo not drawn) [Wu89]	−5.2 mV
